# From patent publication US7902361B2, “Pyrimidin-4-yl-3, 4-thione compounds and their use in therapy” (Cyclacel Limited, priority 2003, dated 2011)
# Key:
# Format in all cases: biochemical
# [1] = biological target: CDK2/cyclin A (Homo sapiens, UniProt P24941); assay: Kinase assay CDK2/cyclin A; details: Ki calculated (Cheng-Prusoff) from experimentally determined IC50 and Km,ATP; read-out: Kinase Inhibition Ki CDK2 - cyclin A
# Method: (§1) The compounds from the examples above were investigated for their ability to inhibit the enzymatic activity of various protein kinases. This was achieved by measurement of incorporation of radioactive phosphate from ATP into appropriate polypeptide substrates. Recombinant protein kinases and kinase complexes were produced or obtained commercially. Assays were performed using 96-well plates and appropriate assay buffers (typically 25 mM β-glycerophosphate, 20 mM MOPS, 5 mM EGTA, 1 mM DTT, 1 mM […], pH 7.4), into which were added 2-4 μg of active enzyme with appropriate substrates. […] Reactions were stopped on ice, followed by filtration through p81 filterplates or GF/C filterplates (Whatman Polyfiltronics, Kent, UK). After washing 3 times with 75 mM aq orthophosphoric acid, plates were dried, scintillant added and incorporated radioactivity measured in a scintillation counter (TopCount, Packard Instruments, Pangbourne, Berks, UK). Compounds for kinase assay were made up as 10 mM stocks in DMSO and diluted into 10% DMSO in assay buffer.
# [2] = biological target: CDK7/cyclin H (Homo sapiens, UniProt P50613); assay: Kinase assay CDK7/cyclin H; details: Ki calculated (Cheng-Prusoff) from experimentally determined IC50 and Km,ATP; read-out: Kinase Inhibition Ki CDK7 - cyclin H
# Method: (§2) The compounds from the examples above were investigated for their ability to inhibit the enzymatic activity of various protein kinases. This was achieved by measurement of incorporation of radioactive phosphate from ATP into appropriate polypeptide substrates. Recombinant protein kinases and kinase complexes were produced or obtained commercially. Assays were performed using 96-well plates and appropriate assay buffers (typically 25 mM β-glycerophosphate, 20 mM MOPS, 5 mM EGTA, 1 mM DTT, 1 mM […], pH 7.4), into which were added 2-4 μg of active enzyme with appropriate substrates. The reactions were initiated by addition of Mg/ATP mix (15 mM MgCl2+100 μM ATP with 30-50 kBq per well of [γ-^32P]-ATP) and mixtures incubated as required at 30° C. Reactions were stopped on ice, followed by filtration through p81 filterplates or GF/C filterplates (Whatman Polyfiltronics, Kent, UK). After washing 3 times with 75 mM aq orthophosphoric acid, plates were dried, scintillant added and incorporated radioactivity measured in a scintillation counter (TopCount, Packard Instruments, Pangbourne, Berks, UK). Compounds for kinase assay were made up as 10 mM stocks in DMSO and diluted into 10% DMSO in assay buffer.
# [3] = biological target: CDK2/cyclin E (Homo sapiens, UniProt P24941); assay: Kinase assay CDK2/cyclin E; details: Ki calculated (Cheng-Prusoff) from experimentally determined IC50 and Km,ATP; read-out: Kinase Inhibition Ki CDK2 - cyclin E
# Method: as §1
# [4] = biological target: CDK1/cyclin B (Homo sapiens, UniProt P06493); assay: Kinase assay CDK1/cyclin B (radioactive phosphate incorporation); details: Ki calculated (Cheng-Prusoff) from experimentally determined IC50 and Km,ATP; read-out: Kinase Inhibition Ki CDK1 - cyclin B
# Method: as §1
# [5] = biological target: CDK4/cyclin D1 (Homo sapiens, UniProt P11802); assay: Kinase assay CDK4/cyclin D1; details: Ki calculated (Cheng-Prusoff) from experimentally determined IC50 and Km,ATP; read-out: Kinase Inhibition Ki CDK4 - cyclin D1
# Method: as §2
# [6] = biological target: CDK9/cyclin T1 (Homo sapiens, UniProt P50750); assay: Kinase assay CDK9/cyclin T1; details: Ki calculated (Cheng-Prusoff) from experimentally determined IC50 and Km,ATP; read-out: Kinase Inhibition Ki CDK9 - cyclin T1
# Method: as §2
# CDK4/cyclin D1, sequence (P11802 whole entry, species assumed): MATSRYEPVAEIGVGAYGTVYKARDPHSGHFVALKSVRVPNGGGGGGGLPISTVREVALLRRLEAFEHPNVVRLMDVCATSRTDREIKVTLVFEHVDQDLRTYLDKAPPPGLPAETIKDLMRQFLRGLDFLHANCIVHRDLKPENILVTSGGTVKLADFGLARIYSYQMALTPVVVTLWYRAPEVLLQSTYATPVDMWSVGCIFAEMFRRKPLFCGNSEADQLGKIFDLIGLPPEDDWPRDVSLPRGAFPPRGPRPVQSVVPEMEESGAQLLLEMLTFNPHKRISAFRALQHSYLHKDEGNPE
# CDK4/cyclin D1, sequence (P24385 whole entry partner, species assumed): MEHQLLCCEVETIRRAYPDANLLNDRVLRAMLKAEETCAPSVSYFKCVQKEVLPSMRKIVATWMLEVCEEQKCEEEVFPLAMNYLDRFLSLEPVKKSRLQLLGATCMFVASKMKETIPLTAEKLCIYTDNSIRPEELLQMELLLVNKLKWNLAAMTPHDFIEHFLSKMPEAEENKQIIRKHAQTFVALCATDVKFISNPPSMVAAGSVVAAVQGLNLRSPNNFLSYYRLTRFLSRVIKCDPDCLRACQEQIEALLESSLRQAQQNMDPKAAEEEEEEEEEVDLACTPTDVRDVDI
# CDK9/cyclin T1, sequence (P50750 whole entry, species assumed): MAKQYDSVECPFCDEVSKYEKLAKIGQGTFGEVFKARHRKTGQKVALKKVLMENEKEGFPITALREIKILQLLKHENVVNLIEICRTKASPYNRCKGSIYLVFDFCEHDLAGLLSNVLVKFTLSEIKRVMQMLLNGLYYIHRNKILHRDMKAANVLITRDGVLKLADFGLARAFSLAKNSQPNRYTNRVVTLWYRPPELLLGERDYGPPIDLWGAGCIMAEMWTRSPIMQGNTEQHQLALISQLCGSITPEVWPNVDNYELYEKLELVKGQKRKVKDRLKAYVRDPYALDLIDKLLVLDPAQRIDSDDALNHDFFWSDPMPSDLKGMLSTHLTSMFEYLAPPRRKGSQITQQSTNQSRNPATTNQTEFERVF
# CDK9/cyclin T1, sequence (O60563 whole entry partner, species assumed): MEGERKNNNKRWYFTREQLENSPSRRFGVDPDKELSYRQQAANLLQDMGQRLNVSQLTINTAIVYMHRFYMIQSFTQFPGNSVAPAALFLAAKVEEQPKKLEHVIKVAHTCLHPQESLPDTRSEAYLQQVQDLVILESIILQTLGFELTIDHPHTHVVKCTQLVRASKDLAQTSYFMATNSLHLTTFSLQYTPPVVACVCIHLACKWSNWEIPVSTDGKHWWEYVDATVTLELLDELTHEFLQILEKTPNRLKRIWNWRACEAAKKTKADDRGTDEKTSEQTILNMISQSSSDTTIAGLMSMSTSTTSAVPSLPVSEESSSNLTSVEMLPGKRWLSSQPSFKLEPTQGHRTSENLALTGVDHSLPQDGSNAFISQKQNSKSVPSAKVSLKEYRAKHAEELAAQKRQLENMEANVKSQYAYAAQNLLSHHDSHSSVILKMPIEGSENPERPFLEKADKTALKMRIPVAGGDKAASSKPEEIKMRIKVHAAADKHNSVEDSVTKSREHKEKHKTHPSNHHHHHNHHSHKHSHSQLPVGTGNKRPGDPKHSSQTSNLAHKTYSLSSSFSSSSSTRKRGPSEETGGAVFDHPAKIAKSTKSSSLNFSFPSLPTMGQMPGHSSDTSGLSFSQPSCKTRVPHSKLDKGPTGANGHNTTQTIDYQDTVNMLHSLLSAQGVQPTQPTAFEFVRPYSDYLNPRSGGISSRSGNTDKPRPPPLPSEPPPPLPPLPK
# CDK1/cyclin B, sequence (P06493 whole entry, species assumed): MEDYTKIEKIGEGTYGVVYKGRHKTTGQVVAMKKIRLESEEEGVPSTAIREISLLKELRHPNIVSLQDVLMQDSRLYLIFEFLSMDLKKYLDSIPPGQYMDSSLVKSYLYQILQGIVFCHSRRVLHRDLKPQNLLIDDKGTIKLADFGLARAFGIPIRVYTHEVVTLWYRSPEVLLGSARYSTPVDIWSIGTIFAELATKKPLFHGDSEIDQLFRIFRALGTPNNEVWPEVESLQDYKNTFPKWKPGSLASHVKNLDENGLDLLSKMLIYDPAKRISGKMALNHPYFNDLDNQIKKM
# CDK1/cyclin B, sequence (P14635 whole entry partner, species assumed): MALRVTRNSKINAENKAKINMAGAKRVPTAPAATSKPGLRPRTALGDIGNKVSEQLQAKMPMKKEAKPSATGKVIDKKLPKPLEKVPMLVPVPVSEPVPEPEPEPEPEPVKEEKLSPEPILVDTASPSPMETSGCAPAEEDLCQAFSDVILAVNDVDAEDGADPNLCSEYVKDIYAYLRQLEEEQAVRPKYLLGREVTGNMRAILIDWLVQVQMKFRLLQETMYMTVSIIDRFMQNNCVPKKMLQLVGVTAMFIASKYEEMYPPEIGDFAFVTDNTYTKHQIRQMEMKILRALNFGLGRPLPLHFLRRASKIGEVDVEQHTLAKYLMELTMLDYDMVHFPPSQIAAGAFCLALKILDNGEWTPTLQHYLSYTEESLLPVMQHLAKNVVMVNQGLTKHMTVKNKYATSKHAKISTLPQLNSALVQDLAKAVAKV
# CDK7/cyclin H, sequence (P50613 whole entry, species assumed): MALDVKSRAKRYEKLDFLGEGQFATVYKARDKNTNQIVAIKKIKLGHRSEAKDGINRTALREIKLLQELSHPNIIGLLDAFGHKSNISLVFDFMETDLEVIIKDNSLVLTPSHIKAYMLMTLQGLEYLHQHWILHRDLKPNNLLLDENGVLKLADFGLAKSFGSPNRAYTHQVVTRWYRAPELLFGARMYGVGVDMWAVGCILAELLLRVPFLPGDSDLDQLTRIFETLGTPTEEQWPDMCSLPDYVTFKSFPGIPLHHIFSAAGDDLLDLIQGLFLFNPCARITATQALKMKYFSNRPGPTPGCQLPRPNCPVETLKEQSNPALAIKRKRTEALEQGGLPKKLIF
# CDK7/cyclin H, sequence (P51946 whole entry partner, species assumed): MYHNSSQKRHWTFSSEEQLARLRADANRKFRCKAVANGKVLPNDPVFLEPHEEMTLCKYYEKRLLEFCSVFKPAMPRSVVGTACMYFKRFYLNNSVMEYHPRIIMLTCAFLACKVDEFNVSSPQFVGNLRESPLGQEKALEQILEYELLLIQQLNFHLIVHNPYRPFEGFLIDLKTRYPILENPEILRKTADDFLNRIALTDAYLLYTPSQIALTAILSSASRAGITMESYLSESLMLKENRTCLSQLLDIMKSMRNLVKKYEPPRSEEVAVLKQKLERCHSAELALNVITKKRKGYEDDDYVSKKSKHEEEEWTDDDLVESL
SMILES,Ki [1] [nM],Ki [2] [nM],Ki [3] [nM],Ki [4] [nM],Ki [5] [nM],Ki [6] [nM]
"Cc1c(-c2ccnc(Nc3ccc(N4CCOCC4)cc3)n2)sc(=O)n1C [Compound 9, 3,4-Dimethyl-5-[2-(4-morpholin-4-yl-phenylamino)-pyrimidin-4-yl]-3H-thiazol-2-one]",170,1300,590,5200,670,
"CC(=O)N1CCN(c2ccc(Nc3nccc(-c4sc(=O)n(C)c4C)n3)cc2)CC1 [Compound 17, 5-{2-[4-(4-Acetyl-piperazin-1-yl)-phenylamino]-pyrimidin-4-yl}-3,4-dimethyl-3H-thiazol-2-one]",180,510,260,6900,190,77
"Cc1c(-c2ccnc(NCc3cccnc3)n2)sc(=O)n1C [Compound 83, 3,4-Dimethyl-5-{2-[(pyridin-3-ylmethyl)-amino]-pyrimidin-4-yl}-3H-thiazol-2-one]",,,1600,,1300,320
"CCn1c(C)c(-c2ccnc(Nc3ccc(Cl)c(C(=O)O)c3)n2)sc1=O [Compound 24, 2-Chloro-5-[4-(3-ethyl-4-methyl-2-oxo-2,3-dihydro-thiazol-5-yl)-pyrimidin-2-ylamino]-benzoic acid]",1100,,1900,6300,24000,370
"COc1ccc(Nc2nccc(-c3sc(=O)n(CCC(C)C)c3C)n2)cn1 [Compound 35, 5-[2-(6-Methoxy-pyridin-3-ylamino)-pyrimidin-4-yl]-4-methyl-3-(3-methyl-butyl)-3H-thiazol-2-one]",190,200,660,2600,2000,490
"Cc1c(-c2ccnc(Nc3ccc(F)c([N+](=O)[O-])c3)n2)sc(=O)n1C [Compound 10, 5-[2-(4-Fluoro-3-nitro-phenylamino)-pyrimidin-4-yl]-3,4-dimethyl-3H-thiazol-2-one]",21,520,130,280,990,
"Cc1c(-c2ccnc(Nc3ccc(N4CCN(C)CC4)cc3)n2)sc(=O)n1C [Compound 13, 3,4-Dimethyl-5-{2-[4-(4-methyl-piperazin-1-yl)-phenylamino]-pyrimidin-4-yl}-3H-thiazol-2-one]",230,170,530,1500,270,93
"Cc1ccc([N+](=O)[O-])cc1Nc1nccc(-c2sc(=O)n(C)c2C)n1 [Compound 20, 3,4-Dimethyl-5-[2-(2-methyl-5-nitro-phenylamino)-pyrimidin-4-yl]-3H-thiazol-2-one]",,910,6500,,,85
"CCn1c(C)c(-c2ccnc(Nc3cccc(OC)c3)n2)sc1=O [Compound 50, 3-Ethyl-5-[2-(3-methoxy-phenylamino)-pyrimidin-4-yl]-4-methyl-3H-thiazol-2-one]",,140,,,,80
"CCn1c(C)c(-c2ccnc(Nc3ccc(Cl)c(C(=O)OC)c3)n2)sc1=O [Compound 25, 2-Chloro-5-[4-(3-ethyl-4-methyl-2-oxo-2,3-dihydro-thiazol-5-yl)-pyrimidin-2-ylamino]-benzoic acid methyl ester]",23000,,2700,,,4400
"Cc1c(-c2ccnc(Nc3ccc(Cl)nc3)n2)sc(=O)n1CCC(C)C [Compound 34, 5-[2-(6-Chloro-pyridin-3-ylamino)-pyrimidin-4-yl]-4-methyl-3-(3-methyl-butyl)-3H-thiazol-2-one]",600,230,1100,3500,,1800
"CC(=O)Nc1nccc(-c2sc(=O)n(C)c2C)n1 [Compound 85, N-[4-(3,4-Dimethyl-2-oxo-2,3-dihydro-thiazol-5-yl)-pyrimidin-2-yl]-acetamide]",,,,,,290
"Cc1c(-c2ccnc(Nc3ccc(Cl)cc3)n2)sc(=O)n1CCC(C)C [Compound 31, 5-[2-(4-Chloro-phenylamino)-pyrimidin-4-yl]-4-methyl-3-(3-methyl-butyl)-3H-thiazol-2-one]",,430,,,,
"Cc1c(-c2ccnc(N)n2)sc(=O)n1C [Compound 84, 5-(2-Amino-pyrimidin-4-yl)-3,4-dimethyl-3H-thiazol-2-one]",,,,,,130
"COc1ccc(Nc2nccc(-c3sc(=O)n(C)c3C)n2)cc1 [Compound 6, 5-[2-(4-Methoxy-phenylamino)-pyrimidin-4-yl]-3,4-dimethyl-3H-thiazol-2-one]",190,920,380,260,570,
"CCn1c(C)c(-c2ccnc(Nc3ccc(N(C)C)c([N+](=O)[O-])c3)n2)sc1=O [Compound 29, 5-[2-(4-Dimethylamino-3-nitro-phenylamino)-pyrimidin-4-yl]-3-ethyl-4-methyl-3H-thiazol-2-one]",,43,33,,170,7
"Cc1c(-c2ccnc(Nc3cc([N+](=O)[O-])ccc3N(C)C)n2)sc(=O)n1C [Compound 37, 5-[2-(2-Dimethylamino-5-nitro-phenylamino)-pyrimidin-4-yl]-3,4-dimethyl-3H-thiazol-2-one]",,,8600,9900,,

# The remaining lines, values ahead:
Ki [1] [nM],Ki [2] [nM],Ki [3] [nM],Ki [4] [nM],Ki [5] [nM],Ki [6] [nM],SMILES
,5100,1700,,,1800,"Cc1c(-c2ccnc(Nc3cccc(C(F)(F)F)c3)n2)sc(=O)n1C [Compound 19, 3,4-Dimethyl-5-[2-(3-trifluoromethyl-phenylamino)-pyrimidin-4-yl]-3H-thiazol-2-one]"
25,620,43,130,540,,"Cc1c(-c2ccnc(Nc3cccc(O)c3)n2)sc(=O)n1C [Compound 7, 5-[2-(3-Hydroxy-phenylamino)-pyrimidin-4-yl]-3,4-dimethyl-3H-thiazol-2-one]"
59,28,28,22,170,1.2,"Cc1c(-c2ccnc(Nc3ccc(Cl)c(CO)c3)n2)sc(=O)n1C [Compound 18, 5-[2-(4-Chloro-3-hydroxymethyl-phenylamino)-pyrimidin-4-yl]-3,4-dimethyl-3H-thiazol-2-one]"
840,,350,700,2100,35,"Cc1ccc(Nc2nccc(-c3sc(=O)n(C)c3C)n2)cc1I [Compound 14, 5-[2-(3-Iodo-4-methyl-phenylamino)-pyrimidin-4-yl]-3,4-dimethyl-3H-thiazol-2-one]"
,,68,500,,6.5,"Cc1c(-c2ccnc(Nc3ccc(Cl)nc3)n2)sc(=O)n1C [Compound 32, 5-[2-(6-Chloro-pyridin-3-ylamino)-pyrimidin-4-yl]-3,4-dimethyl-3H-thiazol-2-one]"
,,,,,0.7,"Cc1c(-c2ccnc(Nc3ccc(O)cc3)n2)sc(=O)n1C [Compound 3, 5-[2-(4-Hydroxy-phenylamino)-pyrimidin-4-yl]-3,4-dimethyl-3H-thiazol-2-one]"
200,4100,130,460,1600,,"Cc1c(-c2ccnc(Nc3ccc(Cl)cc3)n2)sc(=O)n1C [Compound 4, 5-[2-(4-Chloro-phenylamino)-pyrimidin-4-yl]-3,4-dimethyl-3H-thiazol-2-one]"
,,66,380,,24,"Cc1cc(Nc2nccc(-c3sc(=O)n(C)c3C)n2)ccc1F [Compound 12, 5-[2-(4-Fluoro-3-methyl-phenylamino)-pyrimidin-4-yl]-3,4-dimethyl-3H-thiazol-2-one]"
